Test results taken from ChEMBL document CHEMBL3272148, “Antitumor 1-(X-aryl)-3,3-dialkyltriazenes. 2. On the role of correlation analysis in decision making in drug modification. Toxicity quantitative structure-activity relationships of 1-(X-phenyl)-3,3-dialkyltriazenes in mice” (J Med Chem, 1978).

Test system: L1210
Assay: Antitumor activity against mouse L1210 cells allografted in mouse assessed as survival rate at 32 mg/kg relative to control
Format: functional
Conditions: not given

| SMILES | T/C [%] |
| --- | --- |
| CCCCN(CCCC)/N=N/c1cc(=O)[nH]c(=O)[nH]1 | 145 |

Organism: Rattus norvegicus
Assay: Toxicity in rat assessed as concentration required for producing T/C of 140
Format: organism-based
Conditions: in vivo

| SMILES | log(1/C) |
| --- | --- |
| CN(C)/N=N/c1ccccc1 | 2.54 |
| Cc1ccc(/N=N/N(C)C)cc1 | 2.62 |
| CN(C)/N=N/c1ccc([N+](=O)[O-])cc1 | 2.06 |
| COc1ccc(/N=N/N(C)C)cc1 | 2.72 |
| CN(C)/N=N/c1ccc(I)cc1 | 2.68 |
| CN(C)/N=N/c1ccc(Br)cc1 | 2.73 |
| CN(C)/N=N/c1ccc(F)cc1 | 2.71 |
| CN(C)/N=N/c1ccc(Cl)cc1 | 2.71 |

Test system: L1210
Assay: Antitumor activity against mouse L1210 cells allografted in mouse assessed as survival rate at 200 mg/kg relative to control
Format: functional
Conditions: not given

| SMILES | T/C [%] |
| --- | --- |
| CCCCN(CC)/N=N/c1[nH]cnc1C(N)=O | 124 |
| CCN(CC)/N=N/c1n[nH]cc1C(N)=O | 144 |

Test system: L1210
Assay: Antitumor activity against mouse L1210 cells allografted in mouse assessed as survival rate at 100 mg/kg relative to control
Format: functional
Conditions: not given

| SMILES | T/C [%] |
| --- | --- |
| CCN(CC)/N=N/c1[nH]cnc1C(N)=O | 127 |

Test system: L1210
Assay: Antitumor activity against mouse L1210 cells allografted in mouse assessed as survival rate at 250 mg/kg relative to control
Format: functional
Conditions: not given

| SMILES | T/C [%] |
| --- | --- |
| NC(=O)c1nc[nH]c1/N=N/N1CCCC1 | 126 |

Test system: L1210
Assay: Antitumor activity against mouse L1210 cells allografted in mouse assessed as survival rate at 20 mg/kg relative to control
Format: functional
Conditions: not given

| SMILES | T/C [%] |
| --- | --- |
| Cc1n[nH]c(C)c1/N=N/N1CCOCC1 | 124 |

Test system: L1210
Assay: Antitumor activity against mouse L1210 cells allografted in mouse assessed as survival rate at 450 mg/kg relative to control
Format: functional
Conditions: not given

| SMILES | T/C [%] |
| --- | --- |
| CCN(CC)/N=N/c1ccc[n+]([O-])c1 | 141 |

Test system: not listed separately
Assay: Half life of the compound at pH 7.4 at 37 degC in presence of serum
Format: physicochemical
Conditions: not given

| SMILES | half-life [min] |
| --- | --- |
| C/N=N/Nc1ccccc1 | 6 |

Organism: Mus musculus
Assay: Toxicity in CDF1 mouse assessed as concentration required for producing T/C of 140
Format: organism-based
Conditions: in vivo

| SMILES | log(1/C) |
| --- | --- |
| CCCCN(C)/N=N/c1ccc(C(N)=O)cc1 | 3.46 |
| CCCCCCCCN(C)/N=N/c1ccc(C(N)=O)cc1 | 2.8 |
| CN(C)/N=N/c1ccccc1 | 3.43 |
| CN(C)/N=N/c1ccc(S(N)(=O)=O)cc1 | 3.2 |
| CN(C)/N=N/c1ccc(C(F)(F)F)cc1 | 3.05 |
| CN(C)/N=N/c1ccc(C#N)cc1 | 3.2 |
| CN(C)/N=N/c1ccc(NC(N)=O)cc1 | 3.68 |
| Cc1ccc(/N=N/N(C)C)cc1 | 3.26 |
| COc1ccc(/N=N/N(C)C)cc1 | 3.55 |
| CCN(C)/N=N/c1ccc(C(N)=O)cc1 | 3.24 |
| CN(C)/N=N/c1ccc(C(N)=O)cc1 | 3.32 |
| CN(C)/N=N/c1[nH]cnc1C(N)=O [DACARBAZINE] | 2.68 |

Organism: Mus musculus
Assay: Toxicity in mouse assessed as concentration required for producing T/C of 140
Format: organism-based
Conditions: in vivo

| SMILES | log(1/C) |
| --- | --- |
| CCN(CC)/N=N/c1[nH]cnc1C(N)=O | 2.75 |
| CCCN(CCC)/N=N/c1[nH]cnc1C(N)=O | 2.7 |
| CCCCN(CCCC)/N=N/c1[nH]cnc1C(N)=O | 2.91 |
| CCCCCN(CCCCC)/N=N/c1[nH]cnc1C(N)=O | 3.49 |
| CN(C)/N=N/c1[nH]cnc1C(N)=O [DACARBAZINE] | 2.44 |

Test system: L1210
Assay: Antitumor activity against mouse L1210 cells allografted in mouse assessed as survival rate at 265 mg/kg relative to control
Format: functional
Conditions: not given

| SMILES | T/C [%] |
| --- | --- |
| CCCN(CCC)/N=N/c1c(C)n[nH]c1C(=O)OC | 131 |
